Measured values reported in the METLIN SMRT retention time set (Domingo-Almenara et al. 2019).

Experiment: gradient 5% acetonitrile 3 min, to 50% in 2 min, to 85% in 15 min, held 3 min, 100 µL/min
Conditions: column: Zorbax Extend-C18 2.1 x 50 mm; eluents: water / acetonitrile, 0.1% formic acid
Summary of the method: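 Pure standards were analyzed in mixtures of ~100 molecules using HPLC coupled to a quadrupole time-of-flight mass spectrometer, in both positive and negative ionization mode. Separation used a Zorbax Extend-C18 column (2.1 × 50 mm, 1.8 μm) at 100 μL/min, with water and acetonitrile each containing 0.1% formic acid. Dead and dwell volumes were 40 μL and 900 μL, and data were collected over 3 months. Retention time was read from computationally picked adduct peaks, each inspected manually.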

Structure (SMILES) | RP-LC retention time [s]
CCNC(=O)c1n[nH]c2c1CN(C(=O)c1cccc(Br)c1)CC2 | 678
O=C(Cn1cnc2nc(N3CCCC(C(=O)NC4CC4)C3)sc2c1=O)Nc1cc(F)cc(F)c1 (stereo not drawn) | 717
CNC(=O)[C@@H]1C[C@H](Oc2ccccc2)CN1C(=O)Cn1c(=O)oc2ccccc21 | 732
COc1cccc(S(=O)(=O)N2C[C@@H]3C[C@H]2C[C@@H]3NC(=O)c2cccnc2)c1 | 676
Clc1ccc(-c2nc3ccccn3c2Nc2ccc3c(c2)OCCO3)cc1 | 708
CCCN1C(=O)c2c(C(=O)NCc3ccc(N(C)C)cc3)ncn2CC1(C)C(=O)NCCC(C)C (stereo not drawn) | 649
CCC1Oc2ccc(S(=O)(=O)N3CCC(C(=O)N(C)Cc4ccccc4)CC3)cc2NC1=O (stereo not drawn) | 872
CCc1noc(NC(C)=O)c1-c1ccc(OC)c(S(=O)(=O)Nc2cccc(Cl)c2C)c1 | 894
Cc1cc(C)cc(NC(=O)Cc2csc3nc(-c4ccc(C)c(C)c4)cn23)c1 | 966
O=C(NCc1cscn1)C1CCN(S(=O)(=O)c2ccc(Cl)s2)CC1 | 739
CC(CNC(=O)C1CCN(S(=O)(=O)c2ccc3c(c2)CCCC(=O)N3)CC1)c1ccccc1 (stereo not drawn) | 766
CSc1cccc(NC(=O)c2cnc(-c3ccc(C)cc3)nc2-c2ccncc2)c1 | 1010
CCNC(=O)N1CCC(CCOc2cccnc2)CC1 | 579
CC1CCN(C(=O)c2ccc3c(c2)N(CC(=O)NC(C)C)C(=O)CO3)CC1 | 684
CCCN(CC1CCOC1)C(=O)Nc1cccc(F)c1 (stereo not drawn) | 684
CCN(CC)c1ncc2c(n1)CCC(C(=O)Nc1ccc(OC)cc1C)C2 (stereo not drawn) | 674
Cc1cc(C)cc(N2CCC(NC(=O)Cc3cccs3)C2=O)c1 (stereo not drawn) | 862
Cc1ccsc1C(=O)NCCn1c(C)cnc1C1CCC1 | 596
COc1ccc(OC)c(S(=O)(=O)N2CCCC(C)(C(=O)NCc3cccc(F)c3)C2)c1 (stereo not drawn) | 916
COc1cc(-c2nnc(C)o2)ccc1C | 828
COc1ccc(C)cc1S(=O)(=O)N1CCN(Cc2ccc3c(c2)OCO3)CC1 | 609
CCC(CO)NCc1ccc(-c2cccc(Cl)c2)o1 (stereo not drawn) | 658
Cc1cc(C)n(CCNC(=O)c2cnccn2)n1 | 566
COc1ccc(C(=O)CC(SCCO)c2ccc(Cl)cc2)cc1 (stereo not drawn) | 866
O=C(COc1ccc(F)cc1)N1CCN(c2ccc(=O)n(-c3ccc(Cl)cc3)n2)CC1 | 874
Cc1nn2c(S(=O)(=O)N3CCOCC3)c(C)nc2s1 | 656

Structure (SMILES) | RP-LC retention time [s]
O=C(NCc1cccs1)C1CCN(C(=O)c2cc(-c3ccncc3)n[nH]2)CC1 | 572
CC(C)CN1CC(c2nc(-c3ccccc3)no2)C2(CCCC2)C1 (stereo not drawn) | 763
Cc1cc(Cl)ccc1N1C(=O)CN(S(C)(=O)=O)CC1(C)C(=O)NC1CCCCC1 (stereo not drawn) | 900
COc1cc(OC)cc(-c2nnc(Cc3nc(-c4cccc(F)c4)no3)o2)c1 | 907
COCCN1C(=O)CS(=O)(=O)C12CCN(C(=O)C1(c3ccc(OC)cc3)CC1)CC2 | 661
CCCN(C)c1nccnc1OC1CCN(C(=O)CC)C1 (stereo not drawn) | 694
CCNC(=O)c1ccc(-c2nc3cc(NS(=O)(=O)c4cccs4)ccc3n2C)cc1 | 630
Cc1ccc(-c2nc(-c3ccc4nncn4c3)no2)cc1F | 764
O=C(c1ccc(N2CCCC2=O)cc1)N1CCCn2nc(-c3ccc(F)cc3)cc2C1 | 708
O=C(NCc1cccs1)C1CCN(c2cnc(N3CCCCCC3)nc2)CC1 | 732
COc1ccc(CNC2=NCCNC23CCN(S(=O)(=O)c2cc(C)c(C)cc2C)CC3)cc1 | 794
Cc1ccc(Sc2nccnc2N2CCCC(C(=O)N3CCN(c4ccc(C)cc4)CC3)C2)cc1 (stereo not drawn) | 1290
COc1ccc2c(CCNc3nc(-c4ccc(C5CCCCC5)cc4)cs3)c[nH]c2c1 | 1250
O=c1c2sccc2n(Cc2nc(-c3ccc(Br)cc3)no2)c(=O)n1-c1ccc(F)cc1 | 1100
N#Cc1ccc2[nH]cc(CCCCN3CCN(c4ccc5oc(C(N)=O)cc5c4)CC3)c2c1 | 702
O=C(NCc1cccnc1)c1nnc(-c2ccc(S(=O)(=O)N3CCCC3)cc2)o1 | 616
COc1ccc(C2CN(S(=O)(=O)c3cccc(C#N)c3)CCN2C)cc1 (stereo not drawn) | 550
Cc1[nH]c(C(=O)N2CCC(CC(=O)NCCN3CCCCC3)CC2)c(C)c1C | 604
COc1ccc(-c2nc(NCCCN3CCC(N4CCCCC4)CC3)c3ccccc3n2)cc1 | 1210
Cc1ccc(C(=O)N2CCCC2COc2ccc(C(=O)NC(C)C)cc2)cc1F (stereo not drawn) | 889
CCn1cnc2ccc(C(=O)NC3CCCC3)cc2c1=O | 688
CCc1cccc(NC(=O)N2C[C@@H](F)C[C@H]2C(=O)N2CCOCC2)c1 | 664
CS(=O)(=O)N1CC(F)(F)C[C@H]1c1nc(-c2ccccc2)no1 | 858
Cc1ccc(-c2noc(C3CCCN3C(=O)CNS(=O)(=O)c3ccc(Cl)cc3)n2)cc1 (stereo not drawn) | 1030
Cc1cnc(C(=O)NC2C[C@H]3CC[C@@H](C2)N3C(=O)c2ccoc2)cn1 (stereo partly drawn) | 601

Now from value to compound:

RP-LC retention time [s] | Structure (SMILES)
1230 | CCOc1ccccc1-c1noc(Cn2cnc3c(cnn3-c3ccc(C)c(Cl)c3)c2=O)n1
675 | Cc1cccc(CNC(=O)c2cn3ccc(C)cc3n2)c1
980 | Cn1c(=O)c2cc(C(=O)Nc3cccc(Cl)c3)cnc2n(-c2ccccc2)c1=O
724 | CCOc1ccccc1NC(=O)Cn1nc2c3sc(N(C)C)nc3ncn2c1=O
604 | Cc1ccc(C)c(C(=O)NCc2ccc3c(c2)ncn3C)c1
528 | O=C(Cn1nc(-c2cccnc2)ccc1=O)Nc1nc2ccccc2[nH]1
890 | Fc1ccc(Cc2nc3nccc(-c4ccccc4)n3n2)cc1
1110 | CSc1cccc(NC(=O)Cn2cccc2-c2nc(-c3ccc4c(c3)OCO4)no2)c1
896 | Cc1nc(-c2noc(-c3ccc(F)cc3)n2)cn1CC(=O)NCc1ccc(Cl)cc1
948 | COc1ccccc1NC(=O)N1CCc2nc(-c3ccc(Cl)cc3)ncc2C1
728 | CNC(=O)CCc1nc2ccccc2n(CC(=O)N2CCOc3ccc(C)cc32)c1=O
960 | CS(=O)(=O)N1CCC(C(=O)Nc2ccccc2F)Oc2ccc(Cl)cc21 (stereo not drawn)
1030 | CCn1cc(-c2nc(C)c(C(=O)N3CCc4ccccc43)s2)c2cccnc21
782 | O=C(C1COCC(=O)N1Cc1ccccc1)N1CCN(c2ccc(C(F)(F)F)cn2)CC1 (stereo not drawn)
606 | CCOc1ncccc1C(=O)N1CCN(c2ccc(-c3ccc(OC)c(OC)c3)nn2)CC1
593 | CCN1CCN(C(=O)C2CC(c3ccccc3)=NO2)CC1 (stereo not drawn)
711 | O=C(Cc1nnc(-c2ccc3ncccc3c2)o1)NCc1ccccc1Cl
1130 | O=C(Cc1csc(-c2ccccc2)n1)Nc1nc(-c2ccccc2)cs1
718 | Cc1ccccc1-c1cc(C(N)=O)c2ccccc2n1

RP-LC retention time [s] | Structure (SMILES)
671 | Cc1nc2cccnc2n1C1CCN(C(=O)Nc2ccc(Br)cc2F)CC1
554 | CN(C)C(CNC(=O)c1cc(=O)c2ccccc2o1)c1cn(C)c2ccccc12 (stereo not drawn)
727 | Clc1ccc(-c2cc3c(N4CCN(c5ccccn5)CC4)nccn3n2)cc1
764 | Cc1cccc(CN2C(=O)CCc3c(C)nc(-c4ccncc4)nc32)c1
1010 | CCOC(=O)c1nc(N2CCN(c3ccccc3F)CC2)c2c(C)noc2n1
1040 | Cc1ccc(-c2nc3cnccn3c2Nc2cccc(C)c2C)cc1
767 | CC1=C(c2ccccc2)S(=O)(=O)N=C1N1CCCN(C(=O)NCc2ccco2)CC1
729 | COc1ccc(NC(=O)Cn2c(=O)n(-c3ccccc3)c3ncccc32)cc1OC
585 | CC(=O)N1CCc2[nH]c3ccc(C(=O)NC4CCN(Cc5ccccc5)CC4)cc3c2C1
1350 | CCn1c(=O)c(N2CCCC(C(=O)N3CCN(c4cccc(C)c4C)CC3)C2)nc2ccccc21 (stereo not drawn)
642 | COc1cccc(CNC(=O)NCCc2cn(C)c3ncccc23)c1
1010 | Cc1ccc(NC(=O)Cn2cccc2-c2nnc(C3CCC3)o2)cc1Cl
696 | COc1cccc2c(Nc3cccc(C)c3)cc(C(=O)N3CCSCC3)nc12
927 | CCOC(=O)c1c(S(=O)(=O)N2CC=C(c3ccccc3)CC2)n[nH]c1CC
945 | Cc1ccc(-c2nnc(-c3nc(N4CCOCC4)c4ccccc4n3)o2)cc1
690 | COc1ccc(NC(=O)N2CCC(n3c(-c4ccco4)nc4cccnc43)C2)cc1F (stereo not drawn)
856 | CC(=O)N(Cc1nn(C)c2c1CN(S(=O)(=O)c1cc(C)cc(C)c1)CC2)c1ccccc1
822 | O=C(COc1ccc(F)c(F)c1)N1CCN(c2ncccc2-c2nnc(C3CC3)o2)CC1
